Test results as given in US10881110B2, “Herbicidal compositions comprising isoxazolo[5,4-b]pyridines” (BASF SE, priority 2014, dated 2021).
Where “and” joins values, the source holds several entries; their conditions need not be identical. Equal entries are not always repeated. Where two headings read alike, the source gives them in different places.

Legend:
Experiment in all cases: greenhouse post-emergence herbicidal test
ABUTH = format: in vivo, Abutilon theophrast; design: key to herbicidal activity against ABUTH found: rating on a scale from 0 to 100; conditions: post emergence; for pest or weed control at 31.25 g/ha / pest or weed control at 62.5 g/ha: Abutilon theophrasti, post-emergence, 480 h, read-out: herbicidal activity against ABUTH found
Method in brief: (§1)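 Post-emergence spray on 1–15 cm plants in medium loamy sand pots; actives as 10% w/w EC diluted in water. 10-25° C / 20-35° C per species. Visual score 20 d after treatment, 0 = no damage, 100 = full kill; Colby expected value E=X+Y−(X·Y/100).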

AMBEL = format: in vivo, Ambrosia artemisiifolia; design: key: rating on a scale from 0 to 100
Method in brief: as §1

GALAP = format: in vivo, Galium aparine; design: key to herbicidal activity against GALAP found: rating on a scale from 0 to 100; conditions: post emergence; for pest or weed control at 31.25 g/ha / pest or weed control at 62.5 g/ha / pest or weed control at 125 g/ha: Galium aparine, post-emergence, 480 h, read-out: herbicidal activity against GALAP found; for pest or weed control at 125 g/ha: 125 g/ha a.i.
Method in brief: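 Herbicidal activity scored on a 0 (no damage) to 100 (plants destroyed) scale, usually 20 days after water-based spraying of 1–15 cm plants grown in loamy sand at 10-25 °C or 20-35 °C depending on species. Components were applied from 10% emulsion concentrates; Colby's E=X+Y−(X·Y/100) gives the additive expectation.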

[1] = applied alone at 31.25 g/ha a.i.

Compound: O=C(O)c1cc(C2CC2)nc2onc(C3CC3)c12 [I.1]
- pest or weed control at 31.25 g/ha (ABUTH; I.1 alone 31.25 g/ha a.i.): 0%
- pest or weed control at 62.5 g/ha (ABUTH; I.1 alone 62.5 g/ha a.i.): 65%
- pest or weed control at 62.5 g/ha (ABUTH; 62.5 g/ha a.i.): 25%
- pest or weed control at 31.25 g/ha (ABUTH; I.1 31.25 g/ha a.i.): 20%
- pest or weed control at 31.25 g/ha (ABUTH; single active, 31.25 g/ha a.i.): 0%
- herbicidal activity against ABUTH found (ABUTH; 6 days after treatment, g/ha a.i.: I.1 31.25, B.96 35, mixture 31.25+35): 35
- herbicidal activity against ABUTH found (ABUTH; 6 days after treatment, g/ha a.i.: I.1 31.25, B.96 70, mixture 31.25+70): 35
- herbicidal activity against ABUTH found (ABUTH; 6 days after treatment, g/ha a.i.: I.1 31.25, naptalam 100, mixture 31.25+100): 35
- herbicidal activity against ABUTH found (ABUTH; I.1 31.25 g/ha, B.88 1 g/ha a.i.): 60
- herbicidal activity against ABUTH found (ABUTH; I.1 31.25 g/ha, B.89 25 g/ha a.i.): 60
- herbicidal activity against ABUTH found (ABUTH; I.1 62.5 g/ha, B.167 62.5 g/ha a.i.): 0
- herbicidal activity against ABUTH found (ABUTH; I.1 62.5 g/ha, B.167 125 g/ha a.i.): 0
- herbicidal activity against ABUTH found (ABUTH; a.i. g/ha: I.1 7.8, B.67 125, 20 days after treatment): 0%
- herbicidal activity against ABUTH found (ABUTH; a.i. g/ha: I.1 15.6, B.67 125, 20 days after treatment): 30%
- herbicidal activity against ABUTH found (ABUTH; a.i. g/ha: I.1 31.25, B.67 125, 20 days after treatment): 60%
- herbicidal activity against ABUTH found (ABUTH; a.i. g/ha: I.1 31.25, B.67 125, 20 days after treatment, sub-table r36-r43): 60%
- herbicidal activity against ABUTH found (ABUTH; a.i. g/ha: I.1 62.5, B.67 125, 20 days after treatment): 90%
- herbicidal activity against ABUTH found (ABUTH; a.i. g/ha: I.1 62.5, B.69 25, 20 days after treatment): 50%
- herbicidal activity against ABUTH found (ABUTH; application rate a.i.: I.1 20.8 g/ha, B.107 (topramezone) 6 g/ha, alone or as mixture (composition 1.107)): 0
- herbicidal activity against ABUTH found (ABUTH; application rate a.i.: I.1 31.25 g/ha, B.139 (pyroxasulfone) 25 g/ha, alone or as mixture (composition 1.139)): 10
- herbicidal activity against ABUTH found (ABUTH; application rate a.i.: I.1 62.5 g/ha, B.107 (topramezone) 6 g/ha, alone or as mixture (composition 1.107)): 66
- herbicidal activity against ABUTH found (ABUTH; [1]): 30 and 25
- herbicidal activity against ABUTH found (ABUTH; applied alone at 62.5 g/ha a.i.): 50 and 85
- herbicidal activity against ABUTH found (ABUTH; applied alone at 125 g/ha a.i.): 60
- herbicidal activity against ABUTH found (ABUTH; g/ha a.i.: I.1 31.25, B.20 2, mixture 31.25+2): 15
- herbicidal activity against ABUTH found (ABUTH; g/ha a.i.: I.1 31.25, B.20 4, mixture 31.25+4): 15
- herbicidal activity against ABUTH found (ABUTH; g/ha a.i.: I.1 31.25, B.24 2, mixture 31.25+2): 15
- herbicidal activity against ABUTH found (ABUTH; g/ha a.i.: I.1 31.25, B.52 2.5, mixture 31.25+2.5): 15
- herbicidal activity against ABUTH found (ABUTH; g/ha a.i.: I.1 31.25, B.52 5, mixture 31.25+5): 15
- herbicidal activity against ABUTH found (ABUTH; g/ha a.i.: I.1 62.5, B.52 2.5, mixture 62.5+2.5): 60
- herbicidal activity against AMBEL found (AMBEL; 31.25 g/ha a.i.): 85
- herbicidal activity against AMBEL found (AMBEL; I.1 alone 125 g/ha a.i.): 65
- herbicidal activity against AMBEL found (AMBEL; a.i. g/ha: I.1 20.8, B.192 62.5, 20 days after treatment): 30%
- herbicidal activity against AMBEL found (AMBEL; application rate a.i.: I.1 31.25 g/ha, B.100 (isoxaflutole) 12.5 g/ha, alone or as mixture (composition 1.100)): 90
- herbicidal activity against AMBEL found (AMBEL; application rate a.i.: I.1 31.25 g/ha, B.139 (pyroxasulfone) 12.5 g/ha, alone or as mixture (composition 1.139)): 65
- herbicidal activity against AMBEL found (AMBEL; application rate a.i.: I.1 31.25 g/ha, B.84 (paraquat-dichloride) 17.5 g/ha, alone or as mixture (composition 1.84)): 65
- herbicidal activity against AMBEL found (AMBEL; application rate a.i.: I.1 62.5 g/ha, B.100 (isoxaflutole) 12.5 g/ha, alone or as mixture (composition 1.100)): 90
- herbicidal activity against AMBEL found (AMBEL; [1]): 75
- herbicidal activity against AMBEL found (AMBEL; single active, 15.62 g/ha a.i.): 0
- herbicidal activity against AMBEL found (AMBEL; single active, 15.625 g/ha a.i.): 0
- pest or weed control at 31.25 g/ha (GALAP; I.1 alone 31.25 g/ha a.i.): 50%
- pest or weed control at 62.5 g/ha (GALAP; I.1 alone 62.5 g/ha a.i.): 80%
- pest or weed control at 31.25 g/ha (GALAP; 31.25 g/ha a.i.): 50%
- pest or weed control at 62.5 g/ha (GALAP; 62.5 g/ha a.i.): 50%
- pest or weed control at 125 g/ha (GALAP): 80%
- pest or weed control at 31.25 g/ha (GALAP; I.1 31.25 g/ha a.i.): 60%
- pest or weed control at 62.5 g/ha (GALAP; I.1 62.5 g/ha a.i.): 60%
- pest or weed control at 62.5 g/ha (GALAP; single active, 62.5 g/ha a.i.): 65%
- pest or weed control at 125 g/ha (GALAP; single active): 65%
- herbicidal activity against GALAP found (GALAP; 6 days after treatment, g/ha a.i.: I.1 62.5, B.96 70, mixture 62.5+70): 65
- herbicidal activity against GALAP found (GALAP; 6 days after treatment, g/ha a.i.: I.1 62.5, B.96 140, mixture 62.5+140): 65
- herbicidal activity against GALAP found (GALAP; I.1 31.25 g/ha, B.95 1 g/ha a.i.): 50
- herbicidal activity against GALAP found (GALAP; I.1 31.25 g/ha, B.95 2 g/ha a.i.): 50
